Assay results from US20260347347A1, “2-AZA-AND 2-OXABICYCLO[2.1.1]HEXANE DERIVATIVES AS FACTOR XIIA ENZYME INHIBITORS” (KALVISTA PHARMACEUTICALS LIMITED, priority 2022, published 2026).
Read-outs that look alike come from different tables or passages of the source. Blank lines part the entries; values can stand above or below the compound they belong to.

Columns and labels:
[1] = biological target: human KLK1 (Homo sapiens, UniProt P06870); experiment: Determination of related protease inhibition: KLK1; type: biochemical
Experimental: (§1) In vitro inhibition of related proteases was determined using an IC50 assay based on standard literature methods (see e.g. Shori et al., Biochem. Pharmacol., 1992,43, 1209; Bouckaert et al., European Journal of Medicinal Chemistry 110 (2016) 181). Human serine protease enzyme Plasma Kallikrein, KLK1, FXa, Plasmin, Thrombin and Trypsin were assayed for enzymatic activity using an appropriate fluorogenic substrate at Km concentration, FXIa at fixed substrate concentration of 100 μM and various concentrations of the test compound. Protease activity was measured by monitoring the accumulation of liberated fluorescence from the substrate over 5 min at 25 °C. The linear rate of fluorescence increase per minute was expressed as percentage (%) activity. IC50 values were calculated as the concentration of inhibitor giving 50% inhibition of the uninhibited enzyme activity (100%).

[2] = biological target: human FXa (Homo sapiens, UniProt P00742); experiment: Determination of related protease inhibition: FXa; type: biochemical
Experimental: as §1

[3] = biological target: T1, Human Factor XIIa (Homo sapiens, UniProt P00748); experiment: Determination of FXIIa inhibition (in vitro IC50 assay, fluorogenic substrate H-DPro-Phe-Arg-AFC); type: biochemical
T1 construct: purchased Enzyme Research Laboratories
T1 sequence (P00748 373-615 limits assumed): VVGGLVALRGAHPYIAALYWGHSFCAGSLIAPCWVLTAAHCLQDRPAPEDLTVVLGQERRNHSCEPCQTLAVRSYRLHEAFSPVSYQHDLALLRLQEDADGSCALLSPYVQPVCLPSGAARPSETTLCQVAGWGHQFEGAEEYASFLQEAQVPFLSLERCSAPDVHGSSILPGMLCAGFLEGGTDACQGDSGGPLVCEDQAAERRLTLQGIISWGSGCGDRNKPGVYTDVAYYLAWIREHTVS
T1 sequence (P00748 20-372 partner limits assumed): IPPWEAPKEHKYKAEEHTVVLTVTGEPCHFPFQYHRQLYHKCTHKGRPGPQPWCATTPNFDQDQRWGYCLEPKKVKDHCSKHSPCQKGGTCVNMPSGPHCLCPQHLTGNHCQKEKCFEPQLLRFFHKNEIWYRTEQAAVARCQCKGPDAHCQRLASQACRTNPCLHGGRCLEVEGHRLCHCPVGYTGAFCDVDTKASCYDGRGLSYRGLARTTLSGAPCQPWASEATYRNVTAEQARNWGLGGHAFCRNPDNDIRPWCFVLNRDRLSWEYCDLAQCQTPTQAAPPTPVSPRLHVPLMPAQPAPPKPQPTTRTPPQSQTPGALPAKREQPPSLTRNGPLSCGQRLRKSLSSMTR
Procedure, shortened: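 Human FXIIa incubated at 25 °C with compound and H-DPro-Phe-Arg-AFC at its Km concentration. Linear fluorescence increase monitored over 5 min, expressed as % of uninhibited activity; IC50 is concentration giving 50% inhibition.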

[4] = system: human trypsin; experiment: Determination of related protease inhibition: trypsin; type: biochemical; conditions: fluorogenic substrate at Km concentration, 25 °C
Experimental: as §1

[5] = biological target: T2, human PKal (Homo sapiens, UniProt P03952); experiment: Determination of related protease inhibition: plasma kallikrein; type: biochemical
T2 construct: FXIIa converts plasma prekallikrein (PK) to plasma kallikrein (PKa)
Experimental: as §1

[6] = biological target: human plasmin (Homo sapiens, UniProt P00747); experiment: Determination of related protease inhibition: plasmin; type: biochemical
Experimental: as §1

[7] = biological target: human thrombin (Homo sapiens, UniProt P00734); experiment: Determination of related protease inhibition: thrombin; type: biochemical
Experimental: as §1

[8] = biological target: human FXIa (Homo sapiens, UniProt P03951); experiment: Determination of related protease inhibition: FXIa; type: biochemical
Experimental: as §1

[9] = system: patients with type I/II hereditary angioedema (HAE); conditions: phase 3, monthly prophylactic subcutaneous treatment; cited from earlier work
[10] = fluorogenic substrate at Km concentration, 25 °C, read-out: IC50 (human KLK1)
[11] = fluorogenic substrate at Km concentration, 25 °C, read-out: IC50 (human FXa)
[12] = human Factor XIIa, fluorogenic substrate H-DPro-Phe-Arg-AFC at Km concentration, 5 min, 25 °C, class symbols, read-out: Human FXIIa IC50
[13] = fluorogenic substrate at Km concentration, 25 °C, read-out: IC50 (human PKal)
[14] = fluorogenic substrate at Km concentration, 25 °C, read-out: IC50 (human plasmin)
[15] = fluorogenic substrate at Km concentration, 25 °C, read-out: IC50 (human thrombin)

T2 sequence (P03952 391-638 limits assumed): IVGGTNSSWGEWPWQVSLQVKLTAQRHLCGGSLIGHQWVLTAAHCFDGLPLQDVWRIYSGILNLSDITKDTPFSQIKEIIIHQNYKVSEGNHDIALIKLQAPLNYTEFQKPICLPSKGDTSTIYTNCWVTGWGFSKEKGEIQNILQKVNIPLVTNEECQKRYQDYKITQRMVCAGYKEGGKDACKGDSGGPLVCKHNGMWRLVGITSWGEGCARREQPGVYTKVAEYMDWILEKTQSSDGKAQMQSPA
T2 sequence (P03952 20-390 partner limits assumed): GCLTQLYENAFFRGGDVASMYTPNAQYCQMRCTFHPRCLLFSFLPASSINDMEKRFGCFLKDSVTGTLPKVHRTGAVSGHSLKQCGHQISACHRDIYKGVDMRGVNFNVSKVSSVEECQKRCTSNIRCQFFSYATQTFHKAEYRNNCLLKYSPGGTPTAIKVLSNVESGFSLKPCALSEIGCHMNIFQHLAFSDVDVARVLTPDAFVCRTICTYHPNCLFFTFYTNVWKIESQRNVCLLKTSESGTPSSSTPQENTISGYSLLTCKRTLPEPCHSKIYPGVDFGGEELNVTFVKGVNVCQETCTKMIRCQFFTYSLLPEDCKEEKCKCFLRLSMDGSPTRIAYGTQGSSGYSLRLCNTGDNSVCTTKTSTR
Sequence of human FXa (P00742 235-488 limits assumed): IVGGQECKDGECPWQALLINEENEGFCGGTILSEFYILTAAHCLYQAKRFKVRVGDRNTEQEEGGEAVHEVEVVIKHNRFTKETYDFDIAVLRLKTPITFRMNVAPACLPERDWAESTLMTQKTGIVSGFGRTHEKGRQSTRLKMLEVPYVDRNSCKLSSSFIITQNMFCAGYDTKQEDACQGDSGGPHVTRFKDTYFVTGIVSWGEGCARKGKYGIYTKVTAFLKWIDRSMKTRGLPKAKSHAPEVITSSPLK
Sequence of human FXa (P00742 41-179 partner limits assumed): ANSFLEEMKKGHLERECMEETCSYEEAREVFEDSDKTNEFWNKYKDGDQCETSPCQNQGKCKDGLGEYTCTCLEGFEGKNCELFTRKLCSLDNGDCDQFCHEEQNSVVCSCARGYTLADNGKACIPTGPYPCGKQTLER
Sequence of human plasmin (P00747 581-810 limits assumed): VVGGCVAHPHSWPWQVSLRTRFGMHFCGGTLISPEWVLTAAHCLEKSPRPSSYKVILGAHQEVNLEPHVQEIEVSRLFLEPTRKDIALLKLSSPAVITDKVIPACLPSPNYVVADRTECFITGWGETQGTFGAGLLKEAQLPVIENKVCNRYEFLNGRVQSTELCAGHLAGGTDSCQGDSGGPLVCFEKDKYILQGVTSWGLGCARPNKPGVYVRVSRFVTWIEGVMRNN
Sequence of human plasmin (P00747 97-580 partner limits assumed): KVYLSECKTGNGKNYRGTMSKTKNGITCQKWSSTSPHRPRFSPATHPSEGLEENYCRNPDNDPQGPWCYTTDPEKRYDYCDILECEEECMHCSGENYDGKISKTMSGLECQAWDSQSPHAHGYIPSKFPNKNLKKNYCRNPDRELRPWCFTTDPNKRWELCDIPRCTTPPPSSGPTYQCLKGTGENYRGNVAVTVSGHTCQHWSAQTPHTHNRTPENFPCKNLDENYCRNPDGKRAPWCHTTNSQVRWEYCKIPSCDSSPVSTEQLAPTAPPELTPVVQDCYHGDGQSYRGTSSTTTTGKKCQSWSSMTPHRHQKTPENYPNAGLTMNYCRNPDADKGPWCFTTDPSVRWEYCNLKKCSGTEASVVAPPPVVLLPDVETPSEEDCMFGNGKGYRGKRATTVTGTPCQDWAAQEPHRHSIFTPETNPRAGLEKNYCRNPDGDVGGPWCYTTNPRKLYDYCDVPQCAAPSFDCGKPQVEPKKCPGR
Sequence of human KLK1 (P06870 25-262): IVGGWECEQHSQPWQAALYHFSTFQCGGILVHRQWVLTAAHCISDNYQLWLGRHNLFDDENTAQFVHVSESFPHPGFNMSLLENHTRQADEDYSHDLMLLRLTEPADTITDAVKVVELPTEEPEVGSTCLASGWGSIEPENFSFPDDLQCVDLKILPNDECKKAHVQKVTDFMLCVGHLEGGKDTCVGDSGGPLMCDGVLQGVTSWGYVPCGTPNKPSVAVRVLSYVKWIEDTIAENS
Sequence of human FXIa (P03951 388-625 limits assumed): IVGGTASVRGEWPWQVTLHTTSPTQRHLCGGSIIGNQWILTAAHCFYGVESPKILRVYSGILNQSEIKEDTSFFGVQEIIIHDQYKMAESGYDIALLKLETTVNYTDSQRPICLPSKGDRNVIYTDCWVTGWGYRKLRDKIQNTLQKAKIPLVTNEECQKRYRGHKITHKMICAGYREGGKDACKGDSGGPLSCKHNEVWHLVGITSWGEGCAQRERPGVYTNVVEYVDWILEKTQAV
Sequence of human FXIa (P03951 19-387 partner limits assumed): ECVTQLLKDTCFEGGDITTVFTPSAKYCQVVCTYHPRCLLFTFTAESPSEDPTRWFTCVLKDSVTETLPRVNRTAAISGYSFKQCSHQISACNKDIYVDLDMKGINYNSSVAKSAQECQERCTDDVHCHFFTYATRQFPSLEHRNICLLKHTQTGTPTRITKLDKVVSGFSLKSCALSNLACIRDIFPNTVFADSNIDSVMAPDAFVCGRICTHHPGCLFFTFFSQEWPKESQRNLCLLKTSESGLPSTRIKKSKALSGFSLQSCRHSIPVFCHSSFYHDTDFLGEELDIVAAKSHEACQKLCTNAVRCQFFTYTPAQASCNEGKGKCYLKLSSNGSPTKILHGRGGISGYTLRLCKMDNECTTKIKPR

IC50 [3, 12]: 0.01 to 0.1 µM
Compound: Cc1cc(OCC23CN(C(=O)Nc4ccc5c(c4)CCCO5)C(CN(C)c4cccc5c(N)nccc45)(C2)C3)cc(=O)n1C [Example 104, 1-(((1-aminoisoquinolin-5-yl)(methyl)amino)methyl)-N-(chroman-6-yl)-4-(((1,6-dimethyl-2-oxo-1,2-dihydropyridin-4-yl)oxy)methyl)-2-azabicyclo[2.1.1]hexane-2-carboxamide]

IC50 [3, 12]: 0.001 to 0.01 µM
Compound: Cc1cc(OCC23CN(c4nnc(C5CC5)o4)C(CNc4cccc5c(N)nccc45)(C2)C3)cc(=O)n1C [Example 105, 4-((1-(((1-aminoisoquinolin-5-yl)amino)methyl)-2-(5-cyclopropyl-1,3,4-oxadiazol-2-yl)-2-azabicyclo[2.1.1]hexan-4-yl)methoxy)-1,6-dimethylpyridin-2(1H)-one]

Further lines, the compound ahead of its results:

Compound: Cn1ccc(OCC23CN(C(=O)CC4CCCCC4)C(CNc4cccc5c(N)nccc45)(C2)C3)cc1=O [Example 5, 4-((1-(((1-aminoisoquinolin-5-yl)amino)methyl)-2-(2-cyclohexylacetyl)-2-azabicyclo[2.1.1]hexan-4-yl)methoxy)-1-methylpyridin-2(1H)-one]
IC50 [1, 10]: 1 to 3 µM
IC50 [2, 11]: 10 to 40 µM
IC50 [3, 12]: 0.01 to 0.1 µM
IC50 [4]: 10 to 40 µM
IC50 [5, 13]: > 40 µM
IC50 [6, 14]: 3 to 10 µM
IC50 [7, 15]: 10 to 40 µM

Compound: Cc1cc(OCC23CN(C(=O)C4CC5(CCOCC5)C4)C(CNc4cccc5c(N)nccc45)(C2)C3)cc(=O)n1C [Example 20, 4-((1-(((1-aminoisoquinolin-5-yl)amino)methyl)-2-(7-oxaspiro[3.5]nonane-2-carbonyl)-2-azabicyclo[2.1.1]hexan-4-yl)methoxy)-1,6-dimethylpyridin-2(1H)-one]
IC50 [1, 10]: 10 to 40 µM
IC50 [2, 11]: 10 to 40 µM
IC50 [3, 12]: 0.01 to 0.1 µM
IC50 [5, 13]: > 40 µM
IC50 [6, 14]: 10 to 40 µM
IC50 [7, 15]: > 40 µM
IC50 ([8]; fixed substrate concentration of 100 μM, 25 °C, read-out: IC50 (human FXla)): 10 to 40 µM

Compound: Cn1ccc(OCC23CN(C(=O)NC4(c5ccccc5)CC4)C(CNc4cccc5c(N)nccc45)(C2)C3)cc1=O [Example 30, 1-(((1-Aminoisoquinolin-5-yl)amino)methyl)-4-(((1-methyl-2-oxo-1,2-dihydropyridin-4-yl)oxy)methyl)-N-(1-phenylcyclopropyl)-2-azabicyclo[2.1.1]hexane-2-carboxamide]
IC50 [1]: 1 to 3 µM
IC50 [2]: 10 to 40 µM
IC50 [3]: 0.001 to 0.01 µM
IC50 [5]: 10 to 40 µM
IC50 [6]: 10 to 40 µM
IC50 [7]: > 40 µM
IC50 [8]: 3 to 10 µM

Compound: Cn1ccc(OCC23CC(CNc4cccc5c(N)nccc45)(CN2C(=O)CC2CCCCC2)C3)cc1=O [Example 103, 4-((4-(((1-aminoisoquinolin-5-yl)amino)methyl)-2-(2-cyclohexylacetyl)-2-azabicyclo[2.1.1]hexan-1-yl)methoxy)-1-methylpyridin-2(1H)-one]
IC50 [3, 12]: 0.3 to 1 µM

Compound: Garadacimab: Garadacimab (CSL-312), a monoclonal antibody inhibitory against FXIIa
attacks in patients with type I/II hereditary angioedema [9]: reduce attacks
